Test results: US20060019936A1 (priority 2004, published 2006)
Entries after “also recorded” stand apart in the source; their conditions may differ.

Columns and labels:
[1] = tested on: LNCaP cells; type: cell-based, human
[2] = tested on: p45 Skp2; type: cell-based, human; conditions: LNCaP cells, 10 μM, up to 15 h
[3] = Pharmacokinetics / plasma levels in mice
[4] = tested on: human colon adenocarcinoma cell line DLD-1; experiment: DLD-1 xenograft in nude mice; type: in vivo
[5] = tested on: p27 (Kip1); type: cell-based, human; conditions: LNCaP cells, 10 μM, up to 15 h
[6] = tested on: LNCaP cells; experiment: Cell cycle analysis by flow cytometry; type: cell-based, human; conditions: LNCaP cells
[7] = tested on: liver DNA; experiment: DNA adduct formation in liver of treated mice; type: in vivo; conditions: two hours post dosing
Procedure: A set of in vivo studies was performed to assess the stability and biodistribution of the 11β-dichloro compound in mice. These studies required formulation of the compound in a vehicle that would deliver the compound to the tissues following IP or IV administration. The vehicle was Cremophor EL:ethanol:saline (40:30:30 by volume). […] For 2 to 3 hours the compound was present above the […] concentration at which good differential toxicity in favor of killing LNCaP cells in culture was observed. There was also evidence that the intact molecule reached its intended biological target—cellular DNA.

[8] = tested on: engineered estrogen receptor ligand binding domain-positive HeLa cell line; experiment: ER ligand binding domain-positive HeLa xenograft in nude mice; type: in vivo
[9] = tested on: LNCaP cells; experiment: Annexin V staining and flow cytometry; type: cell-based, human; conditions: treatment for 15 h
[10] = target: T1, AR from LNCaP cells (Homo sapiens, UniProt P10275, T878A); experiment: Competitive binding assay for the AR (relative binding affinity); conditions: dihydrotestosterone RBA=100
T1 construct: Whole cell extracts prepared from LNCaP and T47D cells were used as sources of the AR and PR respectively; endogenous in cells; host or cells: LNCaP whole cell extract
T1 sequence (P10275 whole entry T878A): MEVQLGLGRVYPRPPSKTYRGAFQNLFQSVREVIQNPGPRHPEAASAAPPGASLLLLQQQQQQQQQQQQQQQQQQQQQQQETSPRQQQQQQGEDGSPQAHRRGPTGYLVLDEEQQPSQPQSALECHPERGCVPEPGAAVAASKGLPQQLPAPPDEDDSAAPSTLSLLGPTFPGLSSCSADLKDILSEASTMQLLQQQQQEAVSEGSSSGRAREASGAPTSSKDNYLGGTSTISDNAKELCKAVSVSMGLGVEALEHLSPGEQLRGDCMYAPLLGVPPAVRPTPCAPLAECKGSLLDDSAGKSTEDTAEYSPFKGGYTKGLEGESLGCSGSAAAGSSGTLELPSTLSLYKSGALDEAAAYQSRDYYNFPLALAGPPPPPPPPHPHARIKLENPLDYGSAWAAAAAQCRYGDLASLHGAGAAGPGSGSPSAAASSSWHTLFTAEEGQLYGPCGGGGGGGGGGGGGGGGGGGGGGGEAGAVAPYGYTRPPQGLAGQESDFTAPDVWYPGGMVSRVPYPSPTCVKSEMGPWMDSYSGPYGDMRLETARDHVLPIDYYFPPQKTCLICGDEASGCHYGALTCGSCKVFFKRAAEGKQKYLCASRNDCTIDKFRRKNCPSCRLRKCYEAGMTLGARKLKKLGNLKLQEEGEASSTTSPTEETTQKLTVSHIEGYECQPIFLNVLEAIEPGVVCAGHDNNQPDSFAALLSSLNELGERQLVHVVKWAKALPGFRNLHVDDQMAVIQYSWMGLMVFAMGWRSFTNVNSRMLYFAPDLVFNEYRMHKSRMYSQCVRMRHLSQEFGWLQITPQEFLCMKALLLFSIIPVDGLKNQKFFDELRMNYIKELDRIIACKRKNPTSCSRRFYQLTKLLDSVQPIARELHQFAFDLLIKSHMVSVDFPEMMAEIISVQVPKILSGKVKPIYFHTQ

[11] = tested on: c-Myc; experiment: c-Myc protein levels in LNCaP cells; type: cell-based, human
[12] = tested on: LNCaP cells; experiment: DNA fragmentation by agarose gel electrophoresis; type: cell-based, human; conditions: 10 μM, 24 h exposure
[13] = tested on: p70S6K; experiment: Phosphorylation status of p70S6K in LNCaP cells; type: cell-based, human; conditions: after addition to cells
[14] = tested on: p21 (WAF1/Cip1); type: cell-based, human; conditions: LNCaP cells, 10 μM
[15] = tested on: PARP; type: cell-based, human; conditions: 10 μM, LNCaP cells
[16] = tested on: 4E-BP1; experiment: Phosphorylation status of 4E-BP1 in LNCaP cells; type: cell-based, human
[17] = tested on: LNCaP cells grown as a xenograft; experiment: LNCaP xenograft in nude mice; type: in vivo; conditions: seven weekly five-day cycles of 30 mg/kg IP
Procedure: The efficacy of 11β-dichloro was examined toward LNCaP cells grown as a xenograft in nude mice. […] Animals bearing LNCaP xenografts were treated with seven consecutive weekly five-day cycles of 30 mg 11β-dichloro/kg administered via IP injection.
Animal Studies. Four to six week old NIH Swiss nu/nu athymic male mice (25 gm) were obtained from the National Cancer Institute-Frederick Cancer Center (Frederick, Md.). Experiments were carried out under guidelines of the MIT Animal Care Committee. Animals were injected subcutaneously in the right flank with 5×10^6 LNCaP cells suspended in a solution of 50% PBS/50% Matrigel (Collaborative Research, Bedford, Mass.). Therapy commenced when a palpable tumor of approximately 4×4 mm formed (n=5 per treatment group). The 11β-dichloro compound was dissolved in a vehicle composed of cremophor EL, saline and ethanol (43:30:27). Tumor dimensions were measured with vernier calipers. Tumor volumes were calculated using the formula: π/6×larger diameter×(smaller diameter)^2. Statistical analyses were performed using a paired t-test. At the end of the study period, animals were euthanized with CO2. At the time of sacrifice, blood samples were taken from several animals in each group for a complete blood count, along with serum chemistry and liver function analyses. A complete necropsy was also performed, including histopathology on two animals from each group.

[18] = tested on: LNCaP cells; type: cell-based, human; conditions: LNCaP cells, single agent
[19] = tested on: LNCaP, PC3 and DU145 cells; experiment: Differential sensitivity of AR positive and AR negative cells; type: cell-based, human; conditions: dose of 10 μM
Procedure: AR positive LNCaP cells were 7-fold more sensitive than AR negative PC3 and DU145 cells at a dose of 10 μM. Investigations on similar molecules in which a ligand for the estrogen receptor (ER) was tethered to the same DNA damaging warhead, a similar (but slightly smaller) differential toxicity in favor of killing ER positive cells was observed.

## CC12CC(CCCCCCNCCOC(=O)NCCCc3ccc(N(CCCl)CCCl)cc3)C3=C4CCC(=O)C=C4CCC3C1CCC2O (stereo not drawn) [Compound 11β-dichloro, 11β-{N-(2-(N-((N,N-bis-2-chloroethylaminophenyl)propyl)-carbamoyloxy)ethyl)aminohexyl}-17β-hydroxy-estra-Δ4(5),9(10)-3-one]
[1]
  changes in LNCaP cell shape: dramatic contraction and detachment
[2]
  levels of Skp2: decreased
[3]; IP injection of radiolabeled compound, within 30 min
  plasma levels: 30 to 40 µM
[3]; at 1 hour, along with several minor unidentified metabolites
  intact compound in plasma by HPLC: lower concentrations
[4]
  tumor growth of DLD-1 xenograft: Inhibition of tumor growth
[5]
  levels of p27: increased
[6]
  cell cycle arrest: did not arrest cells in a specific point in the cell cycle
[7]
  DNA adducts formed by the intact compound in liver: isolated from liver DNA of treated animals
[8]
  tumor growth of ER-LBD-positive HeLa xenograft: Inhibition of tumor growth
[9]
  concentration showing increased Annexin V staining: > 5 µM
[10]
  RBA (Relative Binding Affinity) for the AR: 33
[11]
  levels of the c-Myc protein: decreased rapidly
[12]
  DNA fragmentation: DNA fragmentation occurs
[13]
  time to removal of the phosphate on Th389 of p70S6K: ≤ 30 min
[14]
  initial change in levels of p21: initially decreased
[14]; up to 15 h
  increase in level of p21: 9 fold
[15]
  time to cleavage of PARP: ≤ 9 h
[16]
  phosphorylation of 4E-BP1: rapid disappearance of phosphate groups
[17]
  tumor growth of LNCaP xenograft: inhibition of tumor growth
[18]
  apoptotic response: LNCaP cells undergo apoptosis; also recorded: potent inducer of apoptosis and cell death; also recorded: activates an apoptotic response resulting in destruction of cells
[19]
  sensitivity of AR positive LNCaP cells relative to AR negative PC3 and DU145 cells: 7 fold
